Publication PMC4349960, “[^18F]FE@SUPPY: a suitable PET tracer for the adenosine A3 receptor? An in vivo study in rodents” (European Journal of Nuclear Medicine and Molecular Imaging, 2015)
pKi: −log10 of the molar value. Read-outs that look alike come from different tables or passages of the source.

Columns and labels:
human A3R = biological target: human A3R; design: method as in PMID 10052977; conditions: read-out: Ki, affinity for human A3R; cited from earlier work
rat A3R [1] = conditions: cited from earlier work
A3R = biological target: T1, A3R (Rattus norvegicus, UniProt P28647); experiment: Small-animal PET in rats: baseline and A3R blocking scans; type: in vivo; conditions: blocker 2 mg/kg i.v. 30 min before tracer; for reduction in brain AUC of [^18F]FE@SUPPY as compared with DMSO administration: 0-60 min
T1 construct: Adult male Sprague-Dawley rats; from tissue; host or cells: living Sprague-Dawley rats, brain volume of interest in PET
T1 sequence (P28647 1-320): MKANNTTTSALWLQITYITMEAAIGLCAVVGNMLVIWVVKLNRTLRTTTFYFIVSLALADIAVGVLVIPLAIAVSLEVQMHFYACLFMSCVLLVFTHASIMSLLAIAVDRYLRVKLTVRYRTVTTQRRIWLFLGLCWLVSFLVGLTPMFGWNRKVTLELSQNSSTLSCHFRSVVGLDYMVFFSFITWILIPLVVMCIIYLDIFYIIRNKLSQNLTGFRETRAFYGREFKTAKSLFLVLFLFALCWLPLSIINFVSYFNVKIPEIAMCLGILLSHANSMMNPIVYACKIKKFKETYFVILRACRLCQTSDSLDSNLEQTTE
Description: A microPET Focus220 scanner (Siemens, Medical Solutions) was used for the experiments. It has 168 detector modules providing a 7.6-cm axial and 22-cm transaxial field of view. The resolution of the reconstructed images (filtered back projection) was 1.3 mm (full-width at half-maximum) in the central field of view and remained under 2 mm within the central 5 cm diameter field of view. For PET imaging two groups of animals (rats and xenografted mice) were investigated. Rats were divided into four groups. The first group received vehicle (dimethyl sulphoxide, DMSO) intravenously via a lateral tail vein 30 min prior to radiotracer administration (three animals, 14.3 – 70.1 MBq, 0.2604 ± 0.06 μg). The second group received MRS1523 – a selective A3R antagonist – at a dose of 2 mg/kg body weight (dissolved in DMSO, 4 mg/mL) intravenously via a tail vein 30 min prior to radiotracer administration (three animals, 18.8 – 59.1 MBq, 0.3443 ± 0.05 μg). The third group received unlabelled title compound FE@SUPPY (dissolved in DMSO, 4 mg/mL) at a dose of 2 mg/kg 30 min before tracer administration (three animals, 9.7 – 16.1 MBq, 0.3926 ± 0.04 μg). In the final study group, the effect of P-glycoprotein inhibition was assessed by intravenous administration of 15 mg/kg TQD (freshly dissolved on each experimental day in 2.5 % aqueous dextrose solution and injected intravenously via a tail vein at a volume of 3 mL/kg over 1 min) 60 min prior to tracer administration (three animals, 13.9 – 26.8 MBq, 0.7451 ± 0.11 μg).
Anaesthetized animals were positioned in the imaging chamber of the microPET scanner, which was kept at 38 °C throughout the experiment. A stereotactic holder attached to the bed, consisting of ear plugs and a tooth bar, was used to fix the animal's head to ensure a reproducible position during the PET studies. [^18F]FE@SUPPY (27.91 ± 13.82 MBq) dissolved in 0.48 ± 0.22 mL phosphate-buffered saline (pH 7.4) was administered as a bolus via a tail vein. Dynamic PET imaging was performed over 60 min in all animals. At the end of the PET scan the animals were killed, a terminal blood sample was collected and whole brains were removed for testing of metabolite stability.
For all PET scans (rats and xenografted mice), list mode data were acquired with an energy window of 350 – 750 keV (rats) or 250 – 750 keV (mice) and a 6-ns timing window. Before each PET scan, a transmission scan using a ^57Co point source was recorded over 10 min. The PET data from the 60-min dynamic scans were sorted into three-dimensional sinograms according to the following frame sequence: 6 × 20 s, 5 × 60 s, 4 × 120 s, 3 × 300 s and 3 × 600 s. For the 90-min scans (in the xenografted mice) the following frame sequence was used: 8 × 5 s, 2 × 10 s, 2 × 30 s, 3 × 60 s, 2 × 150 s, 2 × 300 s, 4 × 600 s and 2 × 900 s. PET images were reconstructed by Fourier rebinning followed by filtered back projection with a ramp filter. The resulting voxel size was 0.6 × 0.6 × 0.8 mm for rats or 0.4 × 0.4 × 0.8 mm for mice. The standard data correction protocol (normalization, attenuation and decay correction) was applied to the data. A calibration factor for converting units of microPET images into absolute radioactivity concentration units was first generated by imaging a phantom filled with a known concentration of [^18F]FDG.
Rat brains were manually outlined on multiple planes of the PET summation images using the image analysis software PMOD 3.1 (Pmod Ltd, Zürich, Switzerland) or Amide. Volumes of interest in the brain or solid tissue mass (xenografts) were transferred to the PET images of the individual time frames and time–activity curves (TACs) expressed in units of kilobecquerels per millilitre were calculated. To facilitate comparison of TACs of different animals, radioactivity concentrations were normalized to dose and weight and expressed as standardized uptake value (SUV, %ID/cm^3 or %ID/g). […]

[2] = Ex vivo stability/metabolism in rat plasma and brain after pretreatment; design: species or system rats; conditions: rats, after blocking treatment
Experimental: To determine the influence of the four treatments (vehicle, MRS1523, FE@SUPPY, TQD) on uptake of [^18F]FE@SUPPY, stability was assessed in plasma and brain 60 min after tracer injection. Final blood samples (3 mL) were collected in heparin-buffered tubes, rat brains were washed with ice-cold water and homogenized in 0.9 % aqueous NaCl solution (1 mL) using an IKA T10 basic Ultra-turrax (IKA Laboratory Equipment, Staufen, Germany). […] Sample clean-up was performed by vortexing plasma with the equivalent amount of methanol/acetonitrile (9:1) for 1 min and by subsequent ultracentrifugation (10,000 rpm, 5 min) to remove precipitated proteins. The supernatants obtained were analysed by radio-HPLC (Agilent, Boeblingen, Germany) equipped with a series 1100 autosampler, a series 1200 quaternary pump, a series 1200 diode array detector and a lead-shielded BGO radiodetector. A Chromolith® Performance RP-18e (100 × 4.6 mm, 5 μm) column with a Chromolith® Performance RP-18e (4 x4 mm, 5 μm) precolumn was eluted at a flow rate of 2 mL/min using a mobile phase consisting of 60 % acetonitrile and 40 % water/acetic acid 97.5:2.5 and 32 mM ammonium acetate, pH 3.5. UV detection was performed at a wavelength of 254 nm. The retention time of [^18F]FE@SUPPY was 4.6 – 5.9 min (UV detection and radiodetection).

human A1R = test system: human A1R; design: method as in earlier work; conditions: cited from earlier work
human A2AR = test system: human A2AR; design: method as in earlier work; conditions: cited from earlier work
rat A3R [3] = experiment: Affinity for rat A3R (literature binding data); conditions: ratio of Ki values
[4] = biological target: T2, CHO cells expressing the human A3R (CHO-A3) (Homo sapiens, UniProt P0DMS8); experiment: Xenograft mouse model PET (CHO vs CHO-A3 solid tissue masses); type: in vivo, mice; conditions: xenografted mice, static image 1 h after injection
T2 construct: Karl-Norbert Klotz (University of Würzburg); host or cells: CHO cells stably transfected (CHO-A3), grown as subcutaneous masses in NMRI-nu/nu mice
T2 sequence (P0DMS8 1-318): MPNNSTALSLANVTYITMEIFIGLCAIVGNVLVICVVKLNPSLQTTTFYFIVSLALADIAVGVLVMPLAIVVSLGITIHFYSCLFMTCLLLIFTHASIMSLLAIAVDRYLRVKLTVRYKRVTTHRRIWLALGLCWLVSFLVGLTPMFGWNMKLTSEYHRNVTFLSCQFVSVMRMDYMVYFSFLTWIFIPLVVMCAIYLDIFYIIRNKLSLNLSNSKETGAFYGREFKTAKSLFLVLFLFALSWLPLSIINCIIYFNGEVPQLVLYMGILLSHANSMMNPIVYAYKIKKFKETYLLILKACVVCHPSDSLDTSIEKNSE
Experimental: Adult male Sprague-Dawley rats (Him:OFA; Animal Research Institute, Himberg, Austria) weighing 307 ± 35 g were kept under controlled environmental conditions (22 ± 1 °C, 40 – 70 % humidity, 12-h light/dark cycle) with free access to standard laboratory animal diet and tap water. Before being used in the experiments, the animals were allowed to adapt to the new conditions for at least a week. Prior to each experiment, the animals were placed in a chamber containing 2.5 % isoflurane in oxygen. When unconscious, the animals were taken from the chamber and kept under anaesthesia with 1.8 % isoflurane administered via a mask during the whole experiment. Pathogen-free, female NMRI-nu/nu mice (Taconic, Denmark) weighing 28.1 ± 0.8 g were housed under sterile conditions. Mice were injected subcutaneously into both upper flanks with 100 μL of a cell suspension in phosphate-buffered saline containing 10^6 CHO cells (right side) or 10^6 CHO-A3 cells (left side). During the imaging periods of 60 or 90 min (rats or xenografted mice, respectively) the isoflurane level was adjusted depending on the depth of anaesthesia. A humidifier was used to moisten the gas mixture before supplying it to the animal.
Around 17 days after cell inoculation, animals in the xenograft group were positioned in the imaging chamber and a dynamic 90-min PET scan was initiated at the start of [^18F]FE@SUPPY injection (2.21 ± 0.75 MBq dissolved in 100 μl physiological saline, pH 7.4; three animals) via a tail vein under isoflurane anaesthesia (2 %). Additionally, in this group, [^18F]FDG PET was performed 1 day prior to the [^18F]FE@SUPPY experiments. […] In brief, mice were deprived of food for 6 – 8 h before [^18F]FDG injection via a tail vein. Mice had access to drinking water at all times. Body warming was achieved by placing the entire cage on a heating pad kept at 38 °C. Warming was started around 30 min before tracer injection and was continued throughout the uptake and imaging period. [^18F]FDG (6.03 ± 1.31 MBq dissolved in 100 μL physiological saline, pH 7.4; three animals) was injected via a tail vein under isoflurane anaesthesia (2 %). Mice were kept under isoflurane anaesthesia throughout the whole uptake and imaging period. A 10-min static image was acquired at 1 h after [^18F]FDG injection. […]
For all PET scans (rats and xenografted mice), list mode data were acquired with an energy window of 350 – 750 keV (rats) or 250 – 750 keV (mice) and a 6-ns timing window. Before each PET scan, a transmission scan using a ^57Co point source was recorded over 10 min. […] A calibration factor for converting units of microPET images into absolute radioactivity concentration units was first generated by imaging a phantom filled with a known concentration of [^18F]FDG. […]

[5] = read-out: Ki, affinity for rat A3R

Compound	reduction in peak brain activity of [^18F]FE@SUPPY as compared with DMSO administration (A3R) [%]	reduction in brain AUC of [^18F]FE@SUPPY as compared with DMSO administration (A3R) [%]	reduction in plasma concentration of [^18F]FE@SUPPY at 60 min after injection [2] [%]	pKi (rat A3R [1]; [5])	further results
CCSC(=O)c1c(CC)nc(-c2ccccc2)c(C(=O)OCCF)c1CC [[^18F]FE@SUPPY, 5-(2-[^18F]fluoroethyl)-2,4-diethyl-3-(ethylsulfanylcarbonyl)-6-phenylpyridine-5-carboxylate]	–	–	–	–	pKi (human A3R): 8.38; pKi (rat A3R [1]; read-out: Ki, affinity towards rat A3R): 6.22
CCSC(=O)c1c(CC)nc(-c2ccccc2)c(C(=O)OCCF)c1CC [FE@SUPPY]	16.7	5.4	27	6.22	affinity for human A1R (human A1R): micromolar range; affinity for human A2AR (human A2AR): micromolar range
CCCOC(=O)c1c(-c2ccccc2)nc(CC)c(C(=O)SCC)c1CCC [MRS1523, reference compound]	34.1	27.6	36	6.95	fold higher affinity of MRS1523 for rat A3R compared with FE@SUPPY (rat A3R [3]): 5.31 fold
[^18F]FDG [reference compound]	–	–	–	–	uptake in CHO tissue mass [4]: 5.4 %ID/g; uptake in CHO-A3 tissue mass [4]: 6.3 %ID/g
